Molecular target: ATP6V0D1 (V-ATPase V0 domain subunit d1) (Homo sapiens, UniProt P61421)
Experiment: SPR
Type: binding

ATP6V0D1 (V-ATPase V0 domain subunit d1), sequence (P61421 whole entry, the tested form may be a part): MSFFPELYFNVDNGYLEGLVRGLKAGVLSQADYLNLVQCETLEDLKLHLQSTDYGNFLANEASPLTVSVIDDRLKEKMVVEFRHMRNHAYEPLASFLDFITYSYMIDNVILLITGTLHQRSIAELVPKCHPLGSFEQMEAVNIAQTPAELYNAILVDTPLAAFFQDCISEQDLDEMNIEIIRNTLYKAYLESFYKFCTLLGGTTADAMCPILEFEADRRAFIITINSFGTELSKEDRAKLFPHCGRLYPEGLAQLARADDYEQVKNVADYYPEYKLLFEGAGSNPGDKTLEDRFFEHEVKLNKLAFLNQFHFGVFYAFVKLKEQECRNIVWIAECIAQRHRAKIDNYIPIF

With `COc1cc2c(c(OC)c1OC)-c1c(cc(OC)c(OC)c1OC)C[C@](C)(O)[C@@H](C)C2` [SolA, Schisandrol A] the Kd was 2000 nM.

Source: article PMC9532558 (Acta Pharmaceutica Sinica. B, 2022)
